# Tests used:
# Format in all cases: functional
# Bacillus subtilis [1] = assay: Antibacterial activity against Bacillus subtilis MTCC 441 at 1000 ug/ml after 48 hr by cup-plate method; conditions: MTCC 441, 48 h, read-out: DIZ
# Pseudomonas fluorescens [2] = assay: Antibacterial activity against Pseudomonas fluorescens MTCC 2421 at 100 ug/ml after 48 hr by cup-plate method; conditions: MTCC 2421, 48 h, read-out: DIZ
# Bacillus subtilis [3] = assay: Antibacterial activity against Bacillus subtilis MTCC 441 at 750 ug/ml after 48 hr by cup-plate method; conditions: MTCC 441, 48 h, read-out: DIZ
# Pseudomonas fluorescens [4] = assay: Antibacterial activity against Pseudomonas fluorescens MTCC 2421 at 750 ug/ml after 48 hr by cup-plate method; conditions: MTCC 2421, 48 h, read-out: DIZ
# Escherichia coli [5] = assay: Antibacterial activity against Escherichia coli MTCC 1573 at 1250 ug/ml after 48 hr by cup-plate method; conditions: MTCC 1573, 48 h, read-out: DIZ
# Staphylococcus aureus [6] = assay: Antibacterial activity against Staphylococcus aureus MTCC 1430 at 1250 ug/ml after 48 hr by cup-plate method; conditions: MTCC 1430, 48 h, read-out: DIZ
# Pseudomonas aeruginosa [7] = assay: Antibacterial activity against Pseudomonas aeruginosa MTCC 424 at 250 ug/ml after 48 hr by cup-plate method; conditions: MTCC 424, 48 h, read-out: DIZ
# Bacillus subtilis [8] = assay: Antibacterial activity against Bacillus subtilis MTCC 441 at 500 ug/ml after 48 hr by cup-plate method; conditions: MTCC 441, 48 h, read-out: DIZ
# Escherichia coli [9] = assay: Antibacterial activity against Escherichia coli MTCC 1573 at 500 ug/ml after 48 hr by cup-plate method; conditions: MTCC 1573, 48 h, read-out: DIZ
# Aspergillus niger [10] = assay: Antifungal activity against Aspergillus niger MTCC 2546 at 250 ug/ml after 48 hr by cup-plate method; conditions: MTCC 2546, 48 h, read-out: DIZ
# Bacillus pumilus [11] = assay: Antibacterial activity against Bacillus pumilus MTCC 1456 at 250 ug/ml after 48 hr by cup-plate method; conditions: MTCC 1456, 48 h, read-out: DIZ
# Micrococcus luteus [12] = assay: Antibacterial activity against Micrococcus luteus MTCC 1538 at 1250 ug/ml after 48 hr by cup-plate method; conditions: MTCC 1538, 48 h, read-out: DIZ
# Escherichia coli [13] = assay: Antibacterial activity against Escherichia coli MTCC 1573 at 1000 ug/ml after 48 hr by cup-plate method; conditions: MTCC 1573, 48 h, read-out: DIZ
# Escherichia coli [14] = assay: Antibacterial activity against Escherichia coli MTCC 1573 after 24 to 48 hr by tube dilution method
# Bacillus subtilis [15] = assay: Antibacterial activity against Bacillus subtilis MTCC 441 at 250 ug/ml after 48 hr by cup-plate method; conditions: MTCC 441, 48 h, read-out: DIZ
# Aspergillus niger [16] = assay: Antifungal activity against Aspergillus niger MTCC 2546 at 100 ug/ml after 48 hr by cup-plate method; conditions: MTCC 2546, 48 h, read-out: DIZ
# Penicillium chrysogenum [17] = assay: Antifungal activity against Penicillium chrysogenum MTCC 161 after 24 to 48 hr by tube dilution method
# Pseudomonas aeruginosa [18] = assay: Antibacterial activity against Pseudomonas aeruginosa MTCC 424 after 24 to 48 hr by tube dilution method
# Aspergillus niger [19] = assay: Antifungal activity against Aspergillus niger MTCC 2546 at 500 ug/ml after 48 hr by cup-plate method; conditions: MTCC 2546, 48 h, read-out: DIZ
# Penicillium chrysogenum [20] = assay: Antifungal activity against Penicillium chrysogenum MTCC 161 at 750 ug/ml after 48 hr by cup-plate method; conditions: MTCC 161, 48 h, read-out: DIZ
# Staphylococcus aureus [21] = assay: Antibacterial activity against Staphylococcus aureus MTCC 1430 at 750 ug/ml after 48 hr by cup-plate method; conditions: MTCC 1430, 48 h, read-out: DIZ
# Penicillium chrysogenum [22] = assay: Antifungal activity against Penicillium chrysogenum MTCC 161 at 1000 ug/ml after 48 hr by cup-plate method; conditions: MTCC 161, 48 h, read-out: DIZ
# Penicillium chrysogenum [23] = assay: Antifungal activity against Penicillium chrysogenum MTCC 161 at 500 ug/ml after 48 hr by cup-plate method; conditions: MTCC 161, 48 h, read-out: DIZ
# Penicillium chrysogenum [24] = assay: Antifungal activity against Penicillium chrysogenum MTCC 161 at 100 ug/ml after 48 hr by cup-plate method; conditions: MTCC 161, 48 h, read-out: DIZ
# Aspergillus niger [25] = assay: Antifungal activity against Aspergillus niger MTCC 2546 after 24 to 48 hr by tube dilution method
# Pseudomonas aeruginosa [26] = assay: Antibacterial activity against Pseudomonas aeruginosa MTCC 424 at 750 ug/ml after 48 hr by cup-plate method; conditions: MTCC 424, 48 h, read-out: DIZ
# Escherichia coli [27] = assay: Antibacterial activity against Escherichia coli MTCC 1573 at 100 ug/ml after 48 hr by cup-plate method; conditions: MTCC 1573, 48 h, read-out: DIZ
# Aspergillus niger [28] = assay: Antifungal activity against Aspergillus niger MTCC 2546 at 1000 ug/ml after 48 hr by cup-plate method; conditions: MTCC 2546, 48 h, read-out: DIZ
# Micrococcus luteus [29] = assay: Antibacterial activity against Micrococcus luteus MTCC 1538 at 1000 ug/ml after 48 hr by cup-plate method; conditions: MTCC 1538, 48 h, read-out: DIZ
# Pseudomonas aeruginosa [30] = assay: Antibacterial activity against Pseudomonas aeruginosa MTCC 424 at 1000 ug/ml after 48 hr by cup-plate method; conditions: MTCC 424, 48 h, read-out: DIZ
# Bacillus pumilus [31] = assay: Antibacterial activity against Bacillus pumilus MTCC 1456 at 500 ug/ml after 48 hr by cup-plate method; conditions: MTCC 1456, 48 h, read-out: DIZ
# Bacillus subtilis [32] = assay: Antibacterial activity against Bacillus subtilis MTCC 441 at 1250 ug/ml after 48 hr by cup-plate method; conditions: MTCC 441, 48 h, read-out: DIZ
# Pseudomonas aeruginosa [33] = assay: Antibacterial activity against Pseudomonas aeruginosa MTCC 424 at 500 ug/ml after 48 hr by cup-plate method; conditions: MTCC 424, 48 h, read-out: DIZ
# Bacillus pumilus [34] = assay: Antibacterial activity against Bacillus pumilus MTCC 1456 after 24 to 48 hr by tube dilution method
# Bacillus pumilus [35] = assay: Antibacterial activity against Bacillus pumilus MTCC 1456 at 1250 ug/ml after 48 hr by cup-plate method; conditions: MTCC 1456, 48 h, read-out: DIZ
# Staphylococcus aureus [36] = assay: Antibacterial activity against Staphylococcus aureus MTCC 1430 at 1000 ug/ml after 48 hr by cup-plate method; conditions: MTCC 1430, 48 h, read-out: DIZ
# Pseudomonas fluorescens [37] = assay: Antibacterial activity against Pseudomonas fluorescens MTCC 2421 after 24 to 48 hr by tube dilution method
# Bacillus pumilus [38] = assay: Antibacterial activity against Bacillus pumilus MTCC 1456 at 1000 ug/ml after 48 hr by cup-plate method; conditions: MTCC 1456, 48 h, read-out: DIZ
# Escherichia coli [39] = assay: Antibacterial activity against Escherichia coli MTCC 1573 at 750 ug/ml after 48 hr by cup-plate method; conditions: MTCC 1573, 48 h, read-out: DIZ
# Staphylococcus aureus [40] = assay: Antibacterial activity against Staphylococcus aureus MTCC 1430 at 250 ug/ml after 48 hr by cup-plate method; conditions: MTCC 1430, 48 h, read-out: DIZ
# Bacillus pumilus [41] = assay: Antibacterial activity against Bacillus pumilus MTCC 1456 at 750 ug/ml after 48 hr by cup-plate method; conditions: MTCC 1456, 48 h, read-out: DIZ
# Pseudomonas aeruginosa [42] = assay: Antibacterial activity against Pseudomonas aeruginosa MTCC 424 at 1250 ug/ml after 48 hr by cup-plate method; conditions: MTCC 424, 48 h, read-out: DIZ
# Micrococcus luteus [43] = assay: Antibacterial activity against Micrococcus luteus MTCC 1538 at 750 ug/ml after 48 hr by cup-plate method; conditions: MTCC 1538, 48 h, read-out: DIZ
# Bacillus subtilis [44] = assay: Antibacterial activity against Bacillus subtilis MTCC 441 at 100 ug/ml after 48 hr by cup-plate method; conditions: MTCC 441, 48 h, read-out: DIZ
structure (smiles),measurement,setting,value
O=[N+]([O-])c1ccc(C2CC(c3cccc4ccccc34)=NN2c2ccc([N+](=O)[O-])cc2)cc1 (centres undefined),zone of inhibition at 1000 µg/mL,Bacillus subtilis [1],17 mm
same,zone of inhibition at 100 µg/mL,Pseudomonas fluorescens [2],9 mm
same,zone of inhibition at 750 µg/mL,Bacillus subtilis [3],15 mm
same,zone of inhibition at 750 µg/mL,Pseudomonas fluorescens [4],14 mm
same,zone of inhibition at 1250 µg/mL,Escherichia coli [5],17 mm
same,zone of inhibition at 1250 µg/mL,Staphylococcus aureus [6],13 mm
same,zone of inhibition at 250 µg/mL,Pseudomonas aeruginosa [7],10 mm
same,zone of inhibition at 500 µg/mL,Bacillus subtilis [8],13 mm
same,zone of inhibition at 500 µg/mL,Escherichia coli [9],12 mm
same,zone of inhibition at 250 µg/mL,Aspergillus niger [10],13 mm
same,zone of inhibition at 250 µg/mL,Bacillus pumilus [11],8 mm
same,zone of inhibition at 1250 µg/mL,Micrococcus luteus [12],15 mm
same,zone of inhibition at 1000 µg/mL,Escherichia coli [13],15 mm
same,MIC,Escherichia coli [14],50 mg/L
same,zone of inhibition at 250 µg/mL,Bacillus subtilis [15],12 mm
same,zone of inhibition at 100 µg/mL,Aspergillus niger [16],12 mm
same,MIC,Penicillium chrysogenum [17],50 mg/L
same,MIC,Pseudomonas aeruginosa [18],30 mg/L
same,zone of inhibition at 500 µg/mL,Aspergillus niger [19],14 mm
same,zone of inhibition at 750 µg/mL,Penicillium chrysogenum [20],14 mm
same,zone of inhibition at 750 µg/mL,Staphylococcus aureus [21],11 mm
same,zone of inhibition at 1000 µg/mL,Penicillium chrysogenum [22],15 mm
same,zone of inhibition at 500 µg/mL,Penicillium chrysogenum [23],12 mm
same,zone of inhibition at 100 µg/mL,Penicillium chrysogenum [24],9 mm
same,MIC,Aspergillus niger [25],30 mg/L
same,zone of inhibition at 750 µg/mL,Pseudomonas aeruginosa [26],13 mm
same,zone of inhibition at 100 µg/mL,Escherichia coli [27],10 mm
same,zone of inhibition at 1000 µg/mL,Aspergillus niger [28],20 mm
same,zone of inhibition at 1000 µg/mL,Micrococcus luteus [29],13 mm
same,zone of inhibition at 1000 µg/mL,Pseudomonas aeruginosa [30],16 mm
same,zone of inhibition at 500 µg/mL,Bacillus pumilus [31],10 mm
same,zone of inhibition at 1250 µg/mL,Bacillus subtilis [32],19 mm
same,zone of inhibition at 500 µg/mL,Pseudomonas aeruginosa [33],11 mm
same,MIC,Bacillus pumilus [34],50 mg/L
same,zone of inhibition at 1250 µg/mL,Bacillus pumilus [35],20 mm
same,zone of inhibition at 1000 µg/mL,Staphylococcus aureus [36],12 mm
same,MIC,Pseudomonas fluorescens [37],30 mg/L
same,zone of inhibition at 1000 µg/mL,Bacillus pumilus [38],18 mm
same,zone of inhibition at 750 µg/mL,Escherichia coli [39],13 mm
same,zone of inhibition at 250 µg/mL,Staphylococcus aureus [40],9 mm
same,zone of inhibition at 750 µg/mL,Bacillus pumilus [41],15 mm
same,zone of inhibition at 1250 µg/mL,Pseudomonas aeruginosa [42],19 mm
same,zone of inhibition at 750 µg/mL,Micrococcus luteus [43],12 mm
same,zone of inhibition at 100 µg/mL,Bacillus subtilis [44],11 mm

# Reference: ChEMBL document CHEMBL3044945, “Synthesis of 1,3,5-trisubstituted pyrazoline nucleus containing compounds and screening for antimicrobial activity” (2012)
